In patent US20200157092A1, “[1,2,4]-TRIAZOLO [1,5-A]-PYRIMIDINYL DERIVATIVES SUBSTITUTED WITH PIPERIDINE, […] […] OGA INHIBITORS” (priority 2017, published 2020):
Where two headings read alike, the source gives them in different places.

Columns and labels:
[1] = biological target: T1, recombinant human Meningioma Expressed Antigen 5 (MGEA5), also referred to as O-GlcNAcase (OGA) (Homo sapiens, UniProt O60502); assay: OGA biochemical assay: inhibition of FM-GlcNAc hydrolysis, fluorescence; protocol A (10 nM OGA, 1 h) or protocol B (2 nM OGA, 6 h); settings: for IC50: read-out: Enzymatic hOGA, pIC50 (converted)
T1 construct: Full length OGA enzyme was purchased at OriGene (cat # TP322411); purchased OriGene TP322411
T1 sequence (O60502 1-916): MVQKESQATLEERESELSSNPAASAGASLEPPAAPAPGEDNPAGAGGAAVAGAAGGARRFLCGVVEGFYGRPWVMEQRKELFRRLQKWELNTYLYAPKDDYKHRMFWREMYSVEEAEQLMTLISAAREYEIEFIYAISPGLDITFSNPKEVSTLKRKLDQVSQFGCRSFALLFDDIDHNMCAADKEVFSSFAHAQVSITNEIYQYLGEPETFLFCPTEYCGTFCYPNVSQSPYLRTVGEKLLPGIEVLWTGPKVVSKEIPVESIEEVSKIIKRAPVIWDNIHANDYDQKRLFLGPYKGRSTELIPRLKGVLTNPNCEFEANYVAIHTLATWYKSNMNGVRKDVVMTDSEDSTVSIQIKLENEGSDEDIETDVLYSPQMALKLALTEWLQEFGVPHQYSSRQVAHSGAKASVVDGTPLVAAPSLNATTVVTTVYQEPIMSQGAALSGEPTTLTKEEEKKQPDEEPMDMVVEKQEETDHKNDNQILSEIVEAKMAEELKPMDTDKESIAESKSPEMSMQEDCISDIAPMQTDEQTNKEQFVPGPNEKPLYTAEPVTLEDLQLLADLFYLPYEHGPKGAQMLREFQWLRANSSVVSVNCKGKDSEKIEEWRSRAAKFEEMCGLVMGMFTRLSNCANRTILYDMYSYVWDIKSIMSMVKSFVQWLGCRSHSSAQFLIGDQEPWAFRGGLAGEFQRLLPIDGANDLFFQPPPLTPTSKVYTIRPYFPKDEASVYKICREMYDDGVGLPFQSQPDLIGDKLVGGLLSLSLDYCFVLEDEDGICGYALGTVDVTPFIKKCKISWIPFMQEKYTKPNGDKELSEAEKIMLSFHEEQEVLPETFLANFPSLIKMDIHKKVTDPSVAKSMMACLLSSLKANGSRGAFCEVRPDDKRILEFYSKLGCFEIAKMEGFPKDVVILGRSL
Protocol: The hydrolysis FM-GlcNAc (Marker Gene technologies, cat # M1485) results in the formation of ß-D-N-glucosamineacetate and fluorescein. The fluorescence of the latter can be measured at excitation wavelength 485 nm and emission wavelength 538 nm. An increase in enzyme activity results in an increase in fluorescence signal. Full length OGA enzyme was purchased at OriGene (cat # TP322411). The enzyme was stored in 25 mM Tris.HCl, pH 7.3, 100 mM glycine, 10% glycerol at −20° C. […] The assay was performed in 200 mM Citrate/phosphate buffer supplemented with 0.005% Tween-20. 35.6 g Na2HPO4 2 H2O (Sigma, # C0759) were dissolved in 1 L water to obtain a 200 mM solution. […] The buffer to stop the reaction consists of a 500 mM Carbonate buffer, pH 11.0. […] OGA was used at a 10 nM (protocol A) or 2 nM (protocol B) concentration and FM-GlcNAc at a 100 uM final concentration. Dilutions were prepared in assay buffer.
Plates were pre-incubated for 60 min at room temperature and then 2 μl FM-GlcNAc substrate mix added. […] Plates were briefly centrifuged for 1 min at 1000 rpm and incubate at room temperature for 1 h (10 nM OGA, protocol A) or 6 h (2 nM OGA, protocol B). To stop the reaction 5 μl STOP buffer were added and plates centrifuge again 1 min at 1000 rpm. Fluorescence was quantified in the Thermo Scientific Fluoroskan Ascent or the PerkinElmer EnVision with excitation wavelength 485 nm and emission wavelength 538 nm.
For analysis a best-fit curve is fitted by a minimum sum of squares method. From this an IC50 value and Hill coefficient was obtained. High control (no inhibitor) and low control (saturating concentrations of standard inhibitor) were used to define the minimum and maximum values.

[2] = biological target: T2, OGA (Homo sapiens, UniProt O60502); assay: OGA cellular assay: immunocytochemical detection of O-GlcNAcylated proteins in HEK293 cells inducible for P301L mutant human Tau; type: cell-based; settings: for Emax: HEK293, read-out: Cellular Emax (%); for Cellular hOGA; pEC50 / Cellular Emax (%): HEK293 cells inducible for P301L mutant human Tau, 6 hours incubation; for Cellular Emax (%): maximum = Thiamet G 200 uM
T2 construct: HEK293 cells inducible for P301L mutant human Tau (isoform 2N4R) were established at Janssen; endogenous in cells; host or cells: HEK293 cells inducible for P301L mutant human Tau (2N4R)
T2 sequence (O60502 1-916): T1 sequence (O60502 1-916)
Source text: HEK293 cells inducible for P301L mutant human Tau (isoform 2N4R) were established at Janssen. Thiamet-G was used for both plate validation (high control) and as reference compound (reference EC50 assay validation). […] Inhibition of OGA will result in an increase of O-GlcNAcylated protein levels resulting in an increased signal in the experiment. […] ICC pictures are imaged with a Perkin Elmer Opera Phenix plate microscope and quantified with the provided software Perkin Elmer Harmony 4.1.
Cells were propagated in DMEM high Glucose (Sigma, # D5796) following standard procedures. […] At the day of compound test medium from assay plates was removed and replenished with 90 μl of fresh Assay Medium. 10 μl of compounds at a 10 fold final concentration were added to the wells. Plates were centrifuged shortly before incubation in the cell incubator for 6 hours. DMSO concentration was set to 0.2%. Medium is discarded by applying vacuum. For staining of cells medium was removed and cells washed once with 100 μl D-PBS (Sigma, # D8537). From next step onwards unless other stated assay volume was always 50 μl and incubation was performed without agitation and at room temperature. […] Before analysis samples were washed 2 times manually for 5 minutes in ICC base buffer.
Imaging is performed using Perkin Elmer Phenix Opera using a water 20× objective and recording 9 fields per well. Intensity readout at 488 nm is used as a measure of O-GlcNAcylation level of total proteins in wells. To assess potential toxicity of compounds nuclei were counted using the Hoechst staining. IC50-values are calculated using parametric non-linear regression model fitting. As a maximum inhibition Thiamet G at a 200 uM concentration is present on each plate. In addition, a concentration response of Thiamet G is calculated on each plate.

[3] = Enzymatic protocol A (10 nM OGA, 1 h)
[4] = Enzymatic protocol B (2 nM OGA, 6 h)

| Structure (SMILES) | Emax [1, 4] [%] | IC50 [1, 4] [nM] | EC50 [2] [nM] | Emax [2] [%] | also measured |
| --- | --- | --- | --- | --- | --- |
| CC(=O)Nc1ncc(S(=O)(=O)N2CCCC(c3cc(C(F)F)nc4nccn34)C2)s1 (racemic) [Product 5] |  |  |  |  | Emax [1, 3]: 99.4%; IC50 [1, 3]: 67.6 nM |
| CC(c1ccc2c(c1)OCO2)N1CCC(Cc2cccc3nccn23)C1 (stereo not shown) [Product 67] | 95.7 | 102 |  |  |  |
| c1cc(CC2CCN(Cc3ccc4nccnc4c3)C2)n2ccnc2c1 (stereo not shown) [Product 58] | 97.3 | 245 | > 10000 | 4.1 |  |
| CC(=O)Nc1ncc(CN2CCCC(c3nc(C)cc4cc[nH]c34)C2)s1 (stereo not shown) [Product 93] |  |  |  |  | Cellular hOGA; pEC50 [2]: 7.61; Cellular Emax (%) [2]: 87.83%; Enzymatic Emax (%) [1, 4]: 101.08%; Enzymatic hOGA; pIC50 [1, 4]: 7.35 |
| CC(=O)Nc1ncc(CN2CCCC(c3ccc4ccn(C)c4n3)C2)s1 (stereo not shown) [Product 73] | 101 | 81.3 | 195 | 87.2 |  |
| CC(=O)Nc1ncc(CN2CCC3(CC3)C(c3cc(C(F)F)nc4ncnn34)C2)s1 (stereo not shown) [Product 64] |  |  | 4790 | 84.5 | Emax [1, 3]: 101%; IC50 [1, 3]: 69.2 nM |
| CC(=O)Nc1ncc(CN2CCC(Cc3cc(C)nc4ncnn34)C2)s1 (stereo not shown) [Product 48] | 103 | 1.74 | 17 | 104 |  |
| CC(=O)Nc1ncc(S(=O)(=O)N2CCC[C@H](c3ccnc4ncnn34)C2)s1 [Product 4] |  |  |  |  | Emax [1, 3]: 107%; IC50 [1, 3]: 30.9 nM |
| CC(=O)Nc1ncc(CN2CCCC(c3cc(C)nc4nccn34)C2)s1 (stereo not shown) [Product 17] | 101 | 8.51 | 55 | 106 |  |
| CC(=O)Nc1ncc(CN2C[C@@H](c3cc(C)nc4ncnn34)C[C@@H](C(F)(F)F)C2)s1 (mixture of isomers) [Product 84] | 88.5 | 1480 |  |  |  |
| CC(=O)Nc1ncc(S(=O)(=O)N2CCCCC(c3ccnc4ncnn34)C2)s1 (stereo not shown) [Product 109] |  |  |  |  | Emax [1, 3]: 95.4%; IC50 [1, 3]: 437 nM |
| CC(=O)Nc1ncc(CN2CCC(c3cc(C)nc4ncnn34)C2)s1 (stereo not shown) [Product 18] | 97.3 | 295 |  |  |  |
| CC(=O)Nc1ncc(CN2CCCC(c3ccnc4nccn34)C2)s1 (racemic) [Product 10] | 100 | 35.5 | 209 | 99 |  |
| CC(=O)Nc1ncc(CN2CCC(Cc3cccc4nccn34)C2)s1 (stereo not shown) [Product 50] | 99.6 | 9.33 | 33.9 | 103 |  |
| CC(=O)Nc1ncc(CN2CCCC(c3ccnc4cc[nH]c34)C2)s1 (racemic) [Product 15] | 97.8 | 37.2 | 12.3 | 95.2 |  |
| CC(=O)Nc1ncc(CN2CCCC(Cc3c(F)c(C)nc4ncnn34)C2)s1 (stereo not shown) [Product 47] | 102 | 1.26 | 15.5 | 109 |  |
| CC(=O)Nc1ncc(CN2CCCC(c3cnc4cc[nH]c4c3)C2)s1 (stereo not shown) [Product 106] | 101 | 275 | 282 | 71 |  |

| Structure (SMILES) | Emax [1, 4] [%] | IC50 [1, 4] [nM] | EC50 [2] [nM] | Emax [2] [%] | also measured |
| --- | --- | --- | --- | --- | --- |
| CC(=O)Nc1ncc(CN2CCCC(c3cc(C)nc4cc[nH]c34)C2)s1 (stereo not shown) [Product 96] |  |  |  |  | Cellular hOGA; pEC50 [2]: 6.40; Cellular Emax (%) [2]: 70.38%; Enzymatic Emax (%) [1, 4]: 99.16%; Enzymatic hOGA; pIC50 [1, 4]: 6.15 |
| CC(=O)Nc1ncc(CN2CCCC(c3cccc4nccn34)C2)s1 (racemic) [Product 12] | 105 | 10.7 | 20.9 | 103 |  |
| CC(=O)Nc1ncc(S(=O)(=O)N2CCC(c3cc(C)nc4ncnn34)C2)s1 (racemic) [Product 8] |  |  |  |  | Emax [1, 3]: 89%; IC50 [1, 3]: 1550 nM |
| CC(=O)Nc1ncc(CN2CCCC(Cc3cncc4nccn34)C2)s1 (stereo not shown) [Product 45] | 100 | 4.68 | 13.5 | 96.9 |  |
| CC(=O)Nc1ncc(CN2CCCC(c3cc(C)nc4ccn(C)c34)C2)s1 (stereo not shown) [Product 86] |  |  |  |  | Cellular hOGA; pEC50 [2]: 7.18; Cellular Emax (%) [2]: 100.91%; Enzymatic Emax (%) [1, 4]: 102.93%; Enzymatic hOGA; pIC50 [1, 4]: 8.38 |
| CC(=O)Nc1ncc(CN2CCC[C@H](c3cnc4cc[nH]c4c3)C2)s1 (single isomer, unassigned) [Product 80] |  |  |  |  | Cellular hOGA; pEC50 [2]: 7.72; Cellular Emax (%) [2]: 109.88%; Enzymatic Emax (%) [1, 4]: 99.58%; Enzymatic hOGA; pIC50 [1, 4]: 7.69 |
| CC(=O)Nc1ncc(CN2CCC(c3c(F)c(C)nc4ncnn34)C2)s1 (stereo not shown) [Product 19] | 97.2 | 204 |  |  |  |
| CC(=O)Nc1ncc(S(=O)(=O)N2CCCC(c3cc(C)nc4ncnn34)C2)s1 (racemic) [Product 3] |  |  |  |  | Emax [1, 3]: 96%; IC50 [1, 3]: 32.4 nM |
| CC(=O)Nc1ncc(S(=O)(=O)N2CCC[C@@H](c3ccnc4ncnn34)C2)s1 [Product 1] |  |  |  |  | Emax [1, 3]: 94.2%; IC50 [1, 3]: 871 nM |
| CC(=O)Nc1ncc(CN2CCCC(C)(c3cc(C(F)F)nc4ncnn34)C2)s1 (stereo not shown) [Product 61] | 27.4 | > 10000 |  |  |  |
| CC(=O)Nc1ncc(CN2CC[C@H](C)[C@@H](c3cc(C(F)F)nc4ncnn34)C2)s1 [Product 16] | 94.5 | 955 |  |  | Emax [1, 3]: 92.5%; IC50 [1, 3]: 1820 nM |
| CC(=O)Nc1ncc(CN2CCCC(c3cc4c(ccn4C)nc3C)C2)s1 (stereo not shown) [Product 105] | 102 | 7.41 |  |  |  |
| CC(=O)Nc1ncc(CN2CCC(c3cc(C)nc4ccnn34)C2)s1 (stereo not shown) [Product 21] | 98.3 | 407 |  |  |  |
| Cc1cc(C2CN(C(C)c3ccc4c(c3)OCO4)CCO2)n2ncnc2n1 (stereo not shown) [Product 53] | 64.6 | 6460 |  |  |  |
| CC(c1ccc2c(c1)OCO2)N1CCOC(c2cc(C(F)(F)F)nc3ncnn23)C1 (stereo not shown) [Product 54] | 25.1 | > 10000 |  |  |  |
| CC(=O)Nc1ncc(S(=O)(=O)N2CCCC(c3ccnc4nccn34)C2)s1 (racemic) [Product 2] |  |  |  |  | Emax [1, 3]: 98.4%; IC50 [1, 3]: 186 nM |
